Assay results published in patent US20240299559A1, “COMPOUNDS THAT MEDIATE PROTEIN DEGRADATION AND METHODS OF USE THEREOF” (Monte Rosa Therapeutics, Inc., priority 2021, published 2024).

Experiments:
[1] = molecular target: T1, CDK2 (Homo sapiens, UniProt P24941); test: CDK2 HiBiT assay (degradation, Dmax); assay type: cell-based; conditions: HEK293 clonal lines with CRISPR KI HiBiT tag on CDK2, stably expressing LgBiT; 24 hours incubation
T1 construct: HEK293 clonal lines with CRISPR KI HiBiT tag on CDK2 proteins; host or cells: HEK293 clonal line with CRISPR knock-in HiBiT on CDK2, stably expressing LgBiT
Experimental: HEK293 clonal lines with CRISPR KI HiBiT tag on CDK2 proteins and stably expressing LgBiT protein were obtained from Promega (Madison, WI). Cells were plated at 5000 cells per well using Multiflo (BioTek) in 384-well white solid bottom plates (Corning, 3570BC) in 25 ul volume in DMEM media (DMEM, high glucose, HEPES, no phenol red (ThermoFisher Scientific, 21063029)) containing 10% FBS (Corning, 35-075-CV), 1% Penicillin/Streptomycin (ThermoFisher Scientific, 15140-122). Cells were incubated for 16 hours at 37° C., 5% CO2. 75 nL of a compound at 30 μM were dosed into the plate using an Echo® 650 liquid handler (Labcyte). Cells were incubated at 37° C., 5% CO2 for 24 hours. 5 ul of HiBiT Lysis Reagent (Promega, N3030) is added using Combi Multidrop (ThermoFisher Scientific), plates are incubated for 15′ at 37° C., 5% CO2 and then signal was read on a Pherastar FSX using “LUM plus” optic module.
Analysis was performed in Scinamic (Scinamic, Cambridge, MA). Luminescence response (R) was calculated by the formula: response=100*(S−N)/(P−N) where S is the signal of the well, N and P the mean negative and positive control values respectively of the same plate. The luminescence response was then fitted in Scinamic using a 3-parameter agonist logistic fit (hillslope=1, EC50>0, top/bottom unconstrained).

[2] = molecular target: CRBN-DDB1 (Homo sapiens, UniProt Q96SW2); test: Compound binding to CRBN by HTRF assay; conditions: CRBN-DDB1 2.5 nM, Cy5-Thalidomide 100 nM probe; Ki from geometric mean of IC50 by Cheng-Prustoff transformation
Experimental: Compound activity was monitored in a Homogenous Time-Resolved Fluorescence (HTRF) assay using 1-[5-({2-[2-(2-{[2-(2,6-dioxopiperidin-3-yl)-1,3-dioxo-2,3-dihydro-1H-isoindol-4-yl]oxy}acetamido)ethoxy]ethyl}carbamoyl)pentyl]-3,3-dimethyl-2-[(1E,3E)-5-[(2E)-1,3,3-trimethyl-5-sulfo-2,3-dihydro-1H-indol-2-ylidene]penta-1,3-dien-1-yl]-3H-indol-1-ium-5-sulfonate as a fluorescent probe. Biochemical assays were conducted in Greiner white 384 well HiBase plates (Cat. No 784075-25) in 10 μL total volume. A one pot detection solution of CRBN-DDB1 (2.5 nM), Anti-His Terbium Cryptate Gold (1×, PerkinElmer Cat. #: 61HI2TLB), and Cy5-Thalidomide (100 nM, Tenova Cat.: T52461) was prepared in 20 mM HEPES, 20 mM NaCl, 0.2 mM TCEP, 0.2 mM EDTA, and 0.005% Tween20 was dispensed to each assay plate. Compounds were stored in dry, ambient temperatures at 10 mM. A 10-point, 1:3 dilution series was prepared from 10 mM stock concentrations in Echo-compatible LDV plates. 10 nL of each compound dilution series was dispensed into assays wells using an Echo 650 (Labcyte inc. USA). 10 nL of 10 mM Lenalidomide was transferred into the active-control wells for the assay and 10 nL of DMSO was transferred into the neutral-control wells. The assay was then allowed to incubate for 30 min at ambient temperature after transferring compound. Plate measurements were taken on a Pherastar FSX (BMG Labtech, Germany) using the HTRF Red filter (Ex. 337 nm, em1:620 nm, em2:665 nm) (Flashes: 50, Integration time: 60-400 us, Z-height: 10 mm, Ratio-multipler: 10,000). The HTRF signal was then subsequently normalized to the neutral and active controls. Analysis and IC50 values were derived using KNIME analytics (KNIME Zurich) transformation and fitting within Collaborative Drug Discovery (Collaborative Drug Discovery USA). Ki was derived from the geometric mean of the IC50 values using the Cheng-Prustoff transformation.

Chain of CRBN-DDB1 (Q96SW2 whole entry): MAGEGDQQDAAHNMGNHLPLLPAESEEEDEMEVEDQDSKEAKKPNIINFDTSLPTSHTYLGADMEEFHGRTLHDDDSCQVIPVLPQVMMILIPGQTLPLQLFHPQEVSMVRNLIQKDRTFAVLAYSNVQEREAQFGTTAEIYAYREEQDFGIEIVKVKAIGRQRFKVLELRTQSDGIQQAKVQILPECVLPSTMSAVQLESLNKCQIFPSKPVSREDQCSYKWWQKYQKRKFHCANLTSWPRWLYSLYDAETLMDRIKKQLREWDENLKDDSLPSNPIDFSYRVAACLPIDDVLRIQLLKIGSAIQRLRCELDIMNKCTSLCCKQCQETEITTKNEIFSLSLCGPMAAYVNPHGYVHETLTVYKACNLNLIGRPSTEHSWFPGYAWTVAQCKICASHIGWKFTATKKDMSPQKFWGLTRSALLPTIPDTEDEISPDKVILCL
Chain of CRBN-DDB1 (Q16531 whole entry partner): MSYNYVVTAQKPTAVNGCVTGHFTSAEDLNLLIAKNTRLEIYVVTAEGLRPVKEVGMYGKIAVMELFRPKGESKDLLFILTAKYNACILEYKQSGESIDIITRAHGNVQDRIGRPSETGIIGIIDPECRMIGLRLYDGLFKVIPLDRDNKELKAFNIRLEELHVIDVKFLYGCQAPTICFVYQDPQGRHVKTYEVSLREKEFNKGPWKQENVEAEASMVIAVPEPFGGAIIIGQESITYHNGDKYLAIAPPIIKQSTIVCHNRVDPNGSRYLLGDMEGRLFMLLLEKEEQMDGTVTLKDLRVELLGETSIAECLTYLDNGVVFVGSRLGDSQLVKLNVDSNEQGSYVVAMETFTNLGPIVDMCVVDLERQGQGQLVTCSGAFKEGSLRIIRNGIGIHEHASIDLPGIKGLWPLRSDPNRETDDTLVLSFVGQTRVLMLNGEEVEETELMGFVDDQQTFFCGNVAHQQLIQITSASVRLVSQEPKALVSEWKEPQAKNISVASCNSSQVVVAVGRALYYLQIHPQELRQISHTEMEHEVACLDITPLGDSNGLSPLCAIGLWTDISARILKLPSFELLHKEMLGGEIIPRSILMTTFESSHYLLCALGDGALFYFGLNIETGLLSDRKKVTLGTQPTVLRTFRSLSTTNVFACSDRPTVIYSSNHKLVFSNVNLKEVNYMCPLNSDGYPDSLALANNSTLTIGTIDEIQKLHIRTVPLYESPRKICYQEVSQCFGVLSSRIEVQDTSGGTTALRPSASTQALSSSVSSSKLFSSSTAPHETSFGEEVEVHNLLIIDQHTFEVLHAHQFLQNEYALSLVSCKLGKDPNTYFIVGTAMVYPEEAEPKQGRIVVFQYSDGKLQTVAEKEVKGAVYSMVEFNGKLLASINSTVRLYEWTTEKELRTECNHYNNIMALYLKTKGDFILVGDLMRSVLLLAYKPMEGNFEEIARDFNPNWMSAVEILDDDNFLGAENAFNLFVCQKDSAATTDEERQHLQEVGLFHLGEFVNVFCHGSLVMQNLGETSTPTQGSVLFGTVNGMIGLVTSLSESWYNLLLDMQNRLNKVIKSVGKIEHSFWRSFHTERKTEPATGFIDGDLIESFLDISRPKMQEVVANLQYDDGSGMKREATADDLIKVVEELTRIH

Row | Structure (SMILES) | Dmax [1] [%] | Ki [2] [nM]
1 | COc1cc(COC(=O)NCc2ccc3c(c2)C(=O)N(C2CCC(=O)NC2=O)C3)ccc1F (centres unmarked) [Compound 44, (4-fluoro-3-methoxyphenyl)methyl N-{[2-(2,6-dioxopiperidin-3-yl)-3-oxo-2,3-dihydro-1H-isoindol-5-yl]methyl}carbamate] | 10 to 50 | ≤ 100
2 | O=C1CCC(N2Cc3ccc(CNC(=O)OCc4cccc(-c5ccc(Cl)cc5)c4)cc3C2=O)C(=O)N1 (centres unmarked) [Compound 8, (4′-chloro-[1,1′-biphenyl]-3-yl)methyl ((2-(2,6-dioxopiperidin-3-yl)-3-oxoisoindolin-5-yl)methyl)carbamate] | 10 to 50 | 100 to 1000
3 | O=C1CCC(N2Cc3ccc(CNC(=O)OCc4cncc(-c5ccccc5)c4)cc3C2=O)C(=O)N1 (centres unmarked) [Compound 13, (5-phenylpyridin-3-yl)methyl ((2-(2,6-dioxopiperidin-3-yl)-3-oxoisoindolin-5-yl)methyl)carbamate] | 10 to 50 | ≤ 100
4 | N#Cc1cc(CNc2nnc(-c3ccc(OC(F)(F)F)cc3)o2)cc2c1CN(C1CCC(=O)NC1=O)C2=O (centres unmarked) [Compound 74, 2-(2,6-dioxopiperidin-3-yl)-1-oxo-6-(((5-(4-(trifluoromethoxy)phenyl)-1,3,4-oxadiazol-2-yl)amino)methyl)isoindoline-4-carbonitrile] | 10 to 50 | 100 to 1000
5 | COc1ccc2cc(COC(=O)NCc3ccc4c(c3)C(=O)N(C3CCC(=O)NC3=O)C4)ccc2c1 (centres unmarked) [Compound 28, (6-methoxynaphthalen-2-yl)methyl N-{[2-(2,6-dioxopiperidin-3-yl)-3-oxo-2,3-dihydro-1H-isoindol-5-yl]methyl}carbamate] | ≤ 10 | 100 to 1000
6 | CC(C)Oc1cccc(COC(=O)NCc2ccc3c(c2)C(=O)N(C2CCC(=O)NC2=O)C3)c1 (centres unmarked) [Compound 38, [3-(propan-2-yloxy)phenyl]methyl N-{[2-(2,6-dioxopiperidin-3-yl)-3-oxo-2,3-dihydro-1H-isoindol-5-yl]methyl}carbamate] | 10 to 50 | 100 to 1000
7 | O=C1CCC(N2Cc3ccc(CNC(=O)OCc4cccc(-c5ccc(F)cc5)c4)cc3C2=O)C(=O)N1 (centres unmarked) [Compound 51, {4′-fluoro-[1,1′-biphenyl]-3-yl}methyl N-{[2-(2,6-dioxopiperidin-3-yl)-3-oxo-2,3-dihydro-1H-isoindol-5-yl]methyl}carbamate] | 10 to 50 | 100 to 1000
8 | O=C1CCC(N2Cc3ccc(CNC(=O)OCc4ccc(OC5CCOCC5)nc4)cc3C2=O)C(=O)N1 (centres unmarked) [Compound 65, [6-(oxan-4-yloxy)pyridin-3-yl]methyl N-{[2-(2,6-dioxopiperidin-3-yl)-3-oxo-2,3-dihydro-1H-isoindol-5-yl]methyl}carbamate] | 10 to 50 | ≤ 100
9 | O=C1CCC(N2Cc3ccc(CNc4nnc(-c5ccc(OC(F)(F)F)cc5)o4)c(O)c3C2=O)C(=O)N1 (centres unmarked) [Compound 75, 3-(7-hydroxy-1-oxo-6-(((5-(4-(trifluoromethoxy)phenyl)-1,3,4-oxadiazol-2-yl)amino)methyl)isoindolin-2-yl)piperidine-2,6-dione] | 10 to 50 | 100 to 1000
10 | O=C1CCC(N2Cc3ccc(CNC(=O)OCc4cc(-c5ccccc5)ccn4)cc3C2=O)C(=O)N1 (centres unmarked) [Compound 14, (4-phenylpyridin-2-yl)methyl ((2-(2,6-dioxopiperidin-3-yl)-3-oxoisoindolin-5-yl)methyl)carbamate] | 10 to 50 | 100 to 1000
11 | O=C1CCC(N2Cc3ccc(CNC(=O)OCc4cccc(-c5ccccc5)c4)cc3C2=O)C(=O)N1 (centres unmarked) [Compound 6, [1,1′-biphenyl]-3-ylmethyl ((2-(2,6-dioxopiperidin-3-yl)-3-oxoisoindolin-5-yl)methyl)carbamate] | 10 to 50 | ≤ 100
12 | CSc1cccc(COC(=O)NCc2ccc3c(c2)C(=O)N(C2CCC(=O)NC2=O)C3)c1 (centres unmarked) [Compound 35, [3-(methylsulfanyl)phenyl]methyl N-{[2-(2,6-dioxopiperidin-3-yl)-3-oxo-2,3-dihydro-1H-isoindol-5-yl]methyl}carbamate] | 10 to 50 | ≤ 100
13 | O=C1CCC(N2Cc3ccc(CNC(=O)OCCc4ccccc4)cc3C2=O)C(=O)N1 (centres unmarked) [Compound 22, 2-phenylethyl N-{[2-(2,6-dioxopiperidin-3-yl)-3-oxo-2,3-dihydro-1H-isoindol-5-yl]methyl}carbamate] | 10 to 50 | ≤ 100

The remaining lines, values ahead:

Row | Dmax [1] [%] | Ki [2] [nM] | Structure (SMILES)
14 | 10 to 50 | ≤ 100 | O=C1CCC(N2Cc3ccc(CNC(=O)OCc4ccc(C5CCCC5)cc4)cc3C2=O)C(=O)N1 (centres unmarked) [Compound 37, (4-cyclopentylphenyl)methyl N-{[2-(2,6-dioxopiperidin-3-yl)-3-oxo-2,3-dihydro-1H-isoindol-5-yl]methyl}carbamate]
15 | ≤ 10 | 100 to 1000 | O=C1CCC(N2Cc3ccc(CNC(=O)OCc4ccc(CN5CCCCC5)cc4)cc3C2=O)C(=O)N1 (centres unmarked) [Compound 53, {4-[(piperidin-1-yl)methyl]phenyl}methyl N-{[2-(2,6-dioxopiperidin-3-yl)-3-oxo-2,3-dihydro-1H-isoindol-5-yl]methyl}carbamate]
16 | 10 to 50 | 100 to 1000 | O=C1CCC(N2Cc3ccc(CNC(=O)OCc4ccc([N+](=O)[O-])cc4)cc3C2=O)C(=O)N1 (centres unmarked) [Compound 26, (4-nitrophenyl)methyl N-{[2-(2,6-dioxopiperidin-3-yl)-3-oxo-2,3-dihydro-1H-isoindol-5-yl]methyl}carbamate]
17 | 10 to 50 | 100 to 1000 | O=C1CCC(N2Cc3ccc(CNC(=O)OCc4ccc(N5CCCC5=O)cc4)cc3C2=O)C(=O)N1 (centres unmarked) [Compound 17, 4-(2-oxopyrrolidin-1-yl)benzyl ((2-(2,6-dioxopiperidin-3-yl)-3-oxoisoindolin-5-yl)methyl)carbamate]
18 | 10 to 50 | ≤ 100 | CC(C)(c1ccc(COC(=O)NCc2ccc3c(c2)C(=O)N(C2CCC(=O)NC2=O)C3)cc1)C(F)(F)F (centres unmarked) [Compound 63, [4-(1,1,1-trifluoro-2-methylpropan-2-yl)phenyl]methyl N-{[2-(2,6-dioxopiperidin-3-yl)-3-oxo-2,3-dihydro-1H-isoindol-5-yl]methyl}carbamate]
19 | 10 to 50 | 100 to 1000 | O=C1CCC(N2Cc3ccc(CNC(=O)OCc4ccc(OC5CCOCC5)cc4)cc3C2=O)C(=O)N1 (centres unmarked) [Compound 3, 4-((tetrahydro-2H-pyran-4-yl)oxy)benzyl((2-(2,6-dioxopiperidin-3-yl)-3-oxoisoindolin-5-yl)methyl)carbamate]
20 | 10 to 50 | ≤ 100 | O=C1CCC(N2Cc3ccc(CNC(=O)OCc4ccc(OCC(F)(F)F)cc4)cc3C2=O)C(=O)N1 (centres unmarked) [Compound 62, [4-(2,2,2-trifluoroethoxy)phenyl]methyl N-{[2-(2,6-dioxopiperidin-3-yl)-3-oxo-2,3-dihydro-1H-isoindol-5-yl]methyl}carbamate]
21 | ≤ 10 | ≤ 100 | O=C1CCC(N2Cc3ccc(CNC(=O)OCc4ccc(Cl)cc4)cc3C2=O)C(=O)N1 (centres unmarked) [Compound 24, (4-chlorophenyl)methyl N-{[2-(2,6-dioxopiperidin-3-yl)-3-oxo-2,3-dihydro-1H-isoindol-5-yl]methyl}carbamate]
22 | ≤ 10 | ≤ 100 | Cc1ccc(COC(=O)NCc2ccc3c(c2)C(=O)N(C2CCC(=O)NC2=O)C3)cc1 (centres unmarked) [Compound 29, (4-methylphenyl)methyl N-{[2-(2,6-dioxopiperidin-3-yl)-3-oxo-2,3-dihydro-1H-isoindol-5-yl]methyl}carbamate]
